Data: patent US10633407B2, “14-membered ketolides and methods of their preparation and use” (President and Fellows of Harvard College, priority 2014, dated 2020)
≈ marks a conversion by molar mass, not a printed value. Like-named read-outs stand apart in the source and are kept apart here.

Columns and labels:
Assay in all cases: CLSI broth dilution MIC determination
Type in all cases: cell-based
[1] = tested on: H. influenzae Erythro >4, Azithro 1; conditions: Haemophilus influenzae; read-out: MIC
Text: MIC data was collected for the novel macrolides that this platform has produced against over 21 unique strains of B. subtilis, E. coli, S. aureus, S. pneumoniae, and H. influenzae, including several multidrug-resistant strains, with a special focus on macrolide resistant mechanisms (vide supra). […] CLSI standard procedures for broth dilution MIC determination were used. […] These genotypes can be constitutive or inducible.

E. coli NDM-1 = tested on: E. coli NDM-1
Outline: (§1)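 CLSI broth-dilution MIC. Controls: azithromycin, solithromycin (many cases). Macrolide-resistance genotypes constitutive or inducible.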

E. coli CTX-M-14 = tested on: E. coli CTX-M-14
Outline: as §1

E. coli ATCC 25922 = tested on: E. coli ATCC 25922
Outline: as §1

S. aureus MRSA: USA300 = tested on: S. aureus MRSA: USA300
Outline: as §1

K. pneumoniae TEM-10 = tested on: K. pneumoniae TEM-10
[2] = tested on: S. pneumoniae mef A genotype (first strain so labelled)
Outline: as §1

E. coli TEM-1 = tested on: E. coli TEM-1
Outline: as §1

S. aureus erm A genotype = tested on: S. aureus erm A genotype
Outline: as §1

[3] = tested on: S. pneumoniae erm B + mef A genotype
Outline: as §1

[4] = tested on: S. pneumoniae mef A genotype (second strain so labelled)
Outline: as §1

S. aureus ATCC 29213 = tested on: S. aureus ATCC 29213
Outline: as §1

H. influenzae ATCC49247 = tested on: H. influenzae ATCC49247
Outline: as §1

S. pneumoniae ATCC 49619 = tested on: S. pneumoniae ATCC 49619
Outline: as §1

S. aureus USA600, GISA = tested on: S. aureus USA600, GISA
Outline: as §1

[5] = tested on: S. pneumoniae erm B + tet(M,O) genotype; conditions: Streptococcus pneumoniae
Outline: as §1

S. aureus MRSA: USA100 = tested on: S. aureus MRSA: USA100
Outline: as §1

K. pneumoniae SHV-12 = tested on: K. pneumoniae SHV-12
[6] = tested on: S. pyogenes Macrolide-resistant
E. faecalis ATCC 29212 = tested on: E. faecalis ATCC 29212
A. baumannii ATCC 19606 = tested on: A. baumannii ATCC 19606
[7] = tested on: E. faecalis Vancomycin-resistant
K. pneumoniae ATCC 10031 = tested on: K. pneumoniae ATCC 10031
[8] = tested on: A. baumannii chromosomal class C
K. pneumoniae KPC-2 = tested on: K. pneumoniae KPC-2
A. baumannii IMP-4 = tested on: A. baumannii IMP-4
S. pyogenes ATCC 19615 = tested on: S. pyogenes ATCC 19615
[9] = tested on: A. baumannii imipenem-resistant
[10] = tested on: P. aeruginosa HPA101-1477
P. aeruginosa ATCC 27853 = tested on: P. aeruginosa ATCC 27853
[11] = Escherichia coli, NDM1, read-out: MIC
[12] = Escherichia coli, CTXM14, read-out: MIC
[13] = Escherichia coli, ATCC25922, E. coli ATCC 25922 (MP-4), read-out: MIC
[14] = Staphylococcus aureus, S. aureus MRSA: USA300 (MP-549, msr(a)), read-out: MIC
[15] = Klebsiella pneumoniae, TEM10, read-out: MIC
[16] = Streptococcus pneumoniae, first strain (MP-626 UNT-038)
[17] = Staphylococcus aureus, S. aureus erm A genotype (MP-620 UNT-146), read-out: MIC
[18] = Streptococcus pneumoniae, second strain (MP-627 UNT-039), read-out: MIC
[19] = Staphylococcus aureus, ATCC29213, S. aureus ATCC 29213 (MP-12), read-out: MIC
[20] = Haemophilus influenzae, read-out: MIC
[21] = Streptococcus pneumoniae, ATCC49619, S. pneumoniae ATCC 49619 (MP-21), read-out: MIC
[22] = Staphylococcus aureus, S. aureus USA600, GISA (MP-619 UNT-120), read-out: MIC
[23] = Staphylococcus aureus, S. aureus MRSA: USA100 (MP-618 UNT-096), read-out: MIC
[24] = Klebsiella pneumoniae, SHV12, read-out: MIC
[25] = Streptococcus pyogenes, S. pyogenes Macrolide-resistant (MP-625 UNT-014), read-out: MIC
[26] = Enterococcus faecalis, ATCC29212, E. faecalis ATCC 29212 (MP-24), read-out: MIC
[27] = Acinetobacter baumannii, ATCC19606, A. baumannii ATCC 19606 (MP-15), read-out: MIC
[28] = Enterococcus faecalis, E. faecalis Vancomycin-resistant (UNT-039), read-out: MIC
[29] = Klebsiella pneumoniae, ATCC10031, K. pneumoniae ATCC 10031 (MP-14), read-out: MIC
[30] = Acinetobacter baumannii, read-out: MIC
[31] = Klebsiella pneumoniae, KPC2, read-out: MIC
[32] = Acinetobacter baumannii, IMP4, read-out: MIC
[33] = Streptococcus pyogenes, ATCC19615, S. pyogenes ATCC 19615 (MP-19), read-out: MIC
[34] = Pseudomonas aeruginosa, HPA1011477, read-out: MIC
[35] = Pseudomonas aeruginosa, ATCC27853, P. aeruginosa ATCC 27853 (MP-3), read-out: MIC

With `CC[C@H]1OC(=O)[C@@H](C)C(=O)[C@H](C)[C@@H](O[C@@H]2OC(C)CC(N(C)C)C2O)[C@](C)(OC)C[C@@H](C)C(=O)[C@H](C)[C@H]2N(C/C=C/Cn3cc(-c4cccc(N)c4)nn3)C(=O)O[C@]12C` (stereo partly drawn) [FSM-100432] the MIC [1] was 8 µg/mL (≈ 9.7 µM), the MIC (E. coli NDM-1; [11]) was greater than 32 µg/mL and the MIC (E. coli CTX-M-14; [12]) was greater than 32 µg/mL. For the same compound, the MIC (E. coli ATCC 25922; [13]) was greater than 32 µg/mL, the MIC (S. aureus MRSA: USA300; [14]) was greater than 32 µg/mL and the MIC (K. pneumoniae TEM-10; [15]) was greater than 32 µg/mL. It also gave an MIC [2, 16] of 0.125 µg/mL (≈ 0.152 µM), an MIC (E. coli TEM-1; Escherichia coli, TEM1) greater than 32 µg/mL and an MIC (S. aureus erm A genotype; [17]) greater than 32 µg/mL. It also gave an MIC ([3]; Streptococcus pneumoniae) of 2 µg/mL (≈ 2.42 µM), an MIC [4, 18] of 0.5 µg/mL (≈ 0.606 µM) and an MIC (S. aureus ATCC 29213; [19]) of 1 µg/mL (≈ 1.21 µM). The MIC (H. influenzae ATCC49247; [20]) was 8 µg/mL (≈ 9.7 µM), the MIC (S. pneumoniae ATCC 49619; [21]) was less than 0.0312 µg/mL and the MIC (S. aureus USA600, GISA; [22]) was greater than 32 µg/mL. The MIC [5] was less than 0.0312 µg/mL, the MIC (S. aureus MRSA: USA100; [23]) was greater than 32 µg/mL and the MIC (K. pneumoniae SHV-12; [24]) was greater than 32 µg/mL. The MIC [6, 25] was 0.0625 µg/mL (≈ 0.0758 µM), the MIC (E. faecalis ATCC 29212; [26]) was 0.125 µg/mL (≈ 0.152 µM) and the MIC (A. baumannii ATCC 19606; [27]) was greater than 32 µg/mL. The MIC [7, 28] was greater than 32 µg/mL, the MIC (K. pneumoniae ATCC 10031; [29]) was 32 µg/mL (≈ 38.8 µM) and the MIC [8, 30] was greater than 32 µg/mL. It also gave an MIC (K. pneumoniae KPC-2; [31]) greater than 32 µg/mL, an MIC (A. baumannii IMP-4; [32]) greater than 32 µg/mL and an MIC (S. pyogenes ATCC 19615; [33]) of less than 0.0312 µg/mL. It also gave an MIC [9, 30] greater than 32 µg/mL, an MIC [10, 34] greater than 32 µg/mL and an MIC (P. aeruginosa ATCC 27853; [35]) greater than 32 µg/mL.

For `CC[C@H]1OC(=O)[C@H](C)[C@@H](O[C@H]2C[C@@](C)(OC)[C@@H](O)[C@H](C)O2)[C@H](C)[C@@H](O[C@@H]2O[C@H](C)C[C@H](N(C)C)[C@H]2O)[C@](C)(O)C[C@@H](C)CN(C)[C@H](C)[C@@H](O)[C@]1(C)O` [Azithro, azithromycin, reference compound], the MIC (E. coli NDM-1; [11]) was greater than 32 µg/mL, the MIC (E. coli NDM-1; Gram-negative) was greater than 32 µg/mL and the MIC (E. coli CTX-M-14; [12]) was greater than 32 µg/mL. It also gave an MIC (E. coli CTX-M-14; Gram-negative) greater than 32 µg/mL, an MIC (E. coli ATCC 25922; E. coli ATCC 25922, Gram-negative) of 4 µg/mL (≈ 5.34 µM) and an MIC (E. coli ATCC 25922; [13]) of 4 µg/mL (≈ 5.34 µM). The MIC (S. aureus MRSA: USA300; S. aureus MRSA: USA300, Gram-positive) was 32 µg/mL (≈ 42.7 µM), the MIC (S. aureus MRSA: USA300; [14]) was 32 µg/mL (≈ 42.7 µM) and the MIC (K. pneumoniae TEM-10; Gram-negative) was 8 µg/mL (≈ 10.7 µM). The MIC (K. pneumoniae TEM-10; [15]) was 8 µg/mL (≈ 10.7 µM), the MIC [2, 16] was 0.25 µg/mL (≈ 0.334 µM) and the MIC ([2]; first of two rows so labelled, Gram-positive) was 0.25 µg/mL (≈ 0.334 µM). For the same compound, the MIC (E. coli TEM-1; E. coli TEM-1, Gram-negative) was 1 µg/mL (≈ 1.34 µM), the MIC (E. coli TEM-1; Escherichia coli, TEM1) was 1 µg/mL (≈ 1.34 µM) and the MIC (S. aureus erm A genotype; S. aureus erm A genotype, Gram-positive) was greater than 32 µg/mL. It also gave an MIC (S. aureus erm A genotype; [17]) greater than 32 µg/mL, an MIC ([3]; S. pneumoniae erm B + mef A genotype, Gram-positive) greater than 32 µg/mL and an MIC ([3]; Streptococcus pneumoniae) greater than 32 µg/mL. The MIC ([4]; Gram-positive) was 4 µg/mL (≈ 5.34 µM), the MIC [4, 18] was 4 µg/mL (≈ 5.34 µM) and the MIC (S. aureus ATCC 29213; S. aureus ATCC 29213, Gram-positive) was 1 µg/mL (≈ 1.34 µM). For the same compound, the MIC (S. aureus ATCC 29213; [19]) was 1 µg/mL (≈ 1.34 µM), the MIC (H. influenzae ATCC49247; Gram-negative) was 0.5 µg/mL (≈ 0.668 µM) and the MIC (H. influenzae ATCC49247; [20]) was 0.5 µg/mL (≈ 0.668 µM). The MIC (S. pneumoniae ATCC 49619; S. pneumoniae ATCC 49619, Gram-positive) was less than 0.0312 µg/mL, the MIC (S. pneumoniae ATCC 49619; [21]) was less than 0.0312 µg/mL and the MIC (S. aureus USA600, GISA; S. aureus USA600, GISA, Gram-positive) was greater than 32 µg/mL. The MIC (S. aureus USA600, GISA; [22]) was greater than 32 µg/mL, the MIC [5] was less than 0.0312 µg/mL and the MIC (S. aureus MRSA: USA100; S. aureus MRSA: USA100, Gram-positive) was greater than 32 µg/mL. It also gave an MIC (S. aureus MRSA: USA100; [23]) greater than 32 µg/mL, an MIC (K. pneumoniae SHV-12; Gram-negative) of 16 µg/mL (≈ 21.4 µM) and an MIC (K. pneumoniae SHV-12; [24]) of 16 µg/mL (≈ 21.4 µM). The MIC ([6]; S. pyogenes Macrolide-resistant, Gram-positive) was 2 µg/mL (≈ 2.67 µM), the MIC [6, 25] was 2 µg/mL (≈ 2.67 µM) and the MIC (E. faecalis ATCC 29212; E. faecalis ATCC 29212, Gram-positive) was 4 µg/mL (≈ 5.34 µM). For the same compound, the MIC (E. faecalis ATCC 29212; [26]) was 4 µg/mL (≈ 5.34 µM), the MIC (A. baumannii ATCC 19606; A. baumannii ATCC 19606, Gram-negative) was 16 µg/mL (≈ 21.4 µM) and the MIC (A. baumannii ATCC 19606; [27]) was 16 µg/mL (≈ 21.4 µM). For the same compound, the MIC ([7]; E. faecalis Vancomycin-resistant, Gram-positive) was greater than 32 µg/mL, the MIC [7, 28] was greater than 32 µg/mL and the MIC (K. pneumoniae ATCC 10031; K. pneumoniae ATCC 10031, Gram-negative) was 4 µg/mL (≈ 5.34 µM). For the same compound, the MIC (K. pneumoniae ATCC 10031; [29]) was 4 µg/mL (≈ 5.34 µM), the MIC [8, 30] was 32 µg/mL (≈ 42.7 µM) and the MIC ([8]; Gram-negative) was 32 µg/mL (≈ 42.7 µM). The MIC (K. pneumoniae KPC-2; Gram-negative) was greater than 32 µg/mL, the MIC (K. pneumoniae KPC-2; [31]) was greater than 32 µg/mL and the MIC (A. baumannii IMP-4; [32]) was greater than 32 µg/mL. For the same compound, the MIC (A. baumannii IMP-4; Gram-negative) was greater than 32 µg/mL, the MIC (S. pyogenes ATCC 19615; S. pyogenes ATCC 19615, Gram-positive) was less than 0.0312 µg/mL and the MIC (S. pyogenes ATCC 19615; [33]) was less than 0.0312 µg/mL. The MIC [9, 30] was 8 µg/mL (≈ 10.7 µM), the MIC ([9]; Gram-negative) was 8 µg/mL (≈ 10.7 µM) and the MIC ([10]; Gram-negative) was greater than 32 µg/mL. The MIC [10, 34] was greater than 32 µg/mL, the MIC (P. aeruginosa ATCC 27853; P. aeruginosa ATCC 27853, Gram-negative) was greater than 32 µg/mL and the MIC (P. aeruginosa ATCC 27853; [35]) was greater than 32 µg/mL.
